Here are results for one molecule from article PMC11582173, “Synthesis, cytotoxicity, anti-inflammatory, anti-metastatic and anti-oxidant activities of novel chalcones incorporating 2-phenoxy-N-arylacetamide and thiophene moieties: induction of apoptosis in MCF7 and HEP2 cells” (Naunyn-Schmiedeberg's Archives of Pharmacology, 2024).

Test [1] deals with human liver carcinoma (HEPG2) cells. Nature of the test: SRB cytotoxic assay, HEPG2. It counts as cell-based. The conditions noted are these: single dose 100 µg/mL, 48 h, read-out: %Inhibition at100 µg/mL HEPG2. Here is the method:
(§1) All the prepared compounds were screened at a concentration of 100 µg/mL against six different human cell lines: human laryngeal carcinoma (HEP2), human colorectal carcinoma (HCT116), human breast carcinoma (MCF7), human Lung carcinoma (A549), human liver carcinoma (HEPG2), and normal African Green monkey kidney cell line (VERO). Doxorubicin was used as a positive control for comparison purposes.
(§2) The human laryngeal carcinoma (HEP2), colorectal carcinoma (HCT116), breast carcinoma (MCF7), Lung carcinoma (A549), liver carcinoma (HEPG2), and normal African Green monkey kidney cell line (VERO) were purchased from American Tissue Culture Collection (Rockville, MD, USA). The cells were treated for 48 h with a single dose (100 µg/mL) of all the tested chalcones. […] In brief, the cells were seeded in a 96-well microtiter plate at a concentration of 5×10^3 cells/well in 100 µL fresh RPMI-1640 medium and left to attach to the plates for 24 h. Then, cells were incubated with 100 μL of different concentrations (50, 25, 12.5, 6.25, and 0.0 µg/mL) of 5c in triplicate at 37 °C for 48 h. After that, the cells were fixed with 10 µL cold 100% Trichloroacetic acid (TCA) for 1h at 4 °C. The wells were then washed 1 time with distilled water using (automatic Tecan washer, Germany) and stained for 30 min at room temperature with 50 µL 0.4% SRB dissolved in 1% acetic acid. The plates were air-dried and the dye was solubilized with 100 µl/well of 1M tris base (pH 10.5) for 5 min. The optical density (O.D.) of each well was measured spectrophotometrically at 570 nm with an ELISA microplate reader (Sunrise Tecan reader, Germany) with automatic shaking for 30 seconds before reading. The mean background absorbance was subtracted automatically and mean values for each drug concentration were calculated. The percentage of cell survival was calculated as follows: Survival fraction= O.D. (treated cells)/ O.D. (control cells) (Bhat et al. [2023]).

Test [2] deals with human colorectal carcinoma (HCT116) cells. Nature of the test: SRB cytotoxic assay, HCT116. It is filed as cell-based. Particulars: HCT-116, single dose 100 µg/mL, 48 h, read-out: %Inhibition at100 µg/mL HCT116. Here is the method:
as §1, §2

For test [3], the system named is MCF7 cells. Put plainly: Flow cytometric analysis of cell cycle, MCF7. Particulars: MCF7, IC50 of 5c, 48 h. It is filed as cell-based, human. Here is the method: In DMEM-supplemented media, cells were plated in 12-well plates at a cell density of 6–8×10^5 per well. After twenty-four hours, cells were cultured for an additional 48 hours with the IC50 of the target compound. The untreated cells were used as a negative control. After 48 h of incubation, the treated cells were centrifuged at 1,200 rpm and 4 °C for 10 min. After discarding the supernatant, the wells were then given a single phosphate-buffered saline (PBS) wash and then centrifuged for 10 min at 1,200 rpm. Trypsin/EDTA was used to collect the cells, and after one PBS wash, they were resuspended in 0.5 mL of 0.05% Triton X-100 for 10 min at room temperature. Each cell suspension was stained by being given 1 mL of 50 µg/mL propidium iodide (PI) to be left at room temperature in the darkness for 20 minutes. The analysis of the cell cycle was done by a flow cytometer (Becton Dickenson (BD) FACSCalibur, USA) (Michalkova et al. [2022]).

Test [4] has as its system human breast carcinoma (MCF7) cells. Nature of the test: SRB cytotoxic assay, MCF7. It is filed as cell-based. Particulars: MCF7, 48 h. Here is the method: as §1, §2
For test [5], the system named is human Lung carcinoma (A549) cells. Nature of the test: SRB cytotoxic assay, A549. It counts as cell-based. The conditions noted are these: single dose 100 µg/mL, 48 h, read-out: %Inhibition at100 µg/mL A549. Here is the method:
as §1, §2

In brackets after ≈: the same amount, converted by molar mass. Several values for one entry are separate records, joined by “and”; a condition that tells them apart may be missing. Equal values may be shown once.

For the molecule `COc1ccc(NC(=O)COc2ccc(C=CC(=O)c3cccs3)cc2)cc1` [Compound 5c, N-(4-Methoxyphenyl)-2-(4-(3-oxo-3-(thiophen-2-yl)prop-1-en-1-yl)phenoxy)acetamide], the inhibition at 100 µg/mL is 67 ± 1.6% in test [1]; 41.9 ± 1.8% in test [2]; above 75% in test [4] (single dose 100 µg/mL, read-out: %Inhibition at100 µg/mL MCF7); 65 ± 2.1% in test [5]. The “Percentage of DNA in G2-M phase” value in test [3] (untreated control 8.95±0.38) is 2.8% and 2.855±0.07778%. For the same molecule, in test [3] (untreated control 45.405±1.97283), the “Percentage of DNA in S phase” value was 42.84% and 42.845±0.4596%. Also, the “Percentage of DNA in G0-G1 phase” value in test [3] (untreated control 45.585±1.548) is 54.3% and 54.3±0.5374%. Besides, 9.5 µg/mL (≈ 24.1 µM) corresponded to half-maximal inhibition in test [4] (IC50).
